Measurements published in patent publication US20040077674A1, “Mappicine analogs, intermediates in the synthesis of mappicine analogs and methods of synthesis of mappicine analogs” (priority 2002, published 2004).

Experiments:
[1] = biological target: T1, RNA-dependent DNA polymerase activity of HIV reverse transcriptase (Human immunodeficiency virus type 1 group M subtype B, UniProt P03366); assay: RNA-dependent DNA polymerase activity assay of HIV reverse transcriptase; assay type: biochemical, HIV-1; conditions: 10 μM inhibitor concentration; activity in presence / in absence of analog x 100
T1 construct: made in house
Protocol: In separate representative assays, mappicine analogs were tested for their ability to inhibit the RNA-dependent DNA polymerase activity of HIV reverse transcriptase and for their ability to inhibit the RNase H activity of HIV reverse transcriptase. The assay for RNA-dependent DNA polymerase activity is discussed in Borkow, G. et al., “Inhibition of the Ribonuclease H and DNA Polymerase Activities of HIV-1 Reverse Transcriptase by N-(4-tert-Butylbenzoyl)-2-hydroxy-1-naphthaldehyde Hydrazone,” Biochemistry 1997, 36, 3179-3185, a copy of which is attached hereto and the disclosure of which is incorporated herein by reference. Assays were carried out in the absence and in the presence of mappicine analogs (10 μM final concentration). The results are reported as % residual activity, which is the RNA-dependent DNA polymerase activity of the enzyme in the presence of the mappicine analog divided by the RNA-dependent activity of the enzyme in the absence of the mappicine analog, multiplied by 100.

[2] = biological target: T2, RNase H activity of HIV reverse transcriptase (Human immunodeficiency virus type 1 group M subtype B, UniProt P03366); assay: Fluorescence (FRET)-based RNase H assay of HIV reverse transcriptase; assay type: biochemical, HIV-1; conditions: for Residual activity (%) RNase H: 10 μM inhibitor concentration, activity in presence / in absence of analog x 100; for % inhibition of RNase H at 20 μM: 20 μM inhibitor concentration
T2 construct: 2.5 nM of the p51/p66 RT heterodimer in the assay; made in house
Protocol: Recently, a fluorescence-based assay to perform screens in search of HIV RNase H inhibitors has been developed. The assay, which is carried out in 96-well microplates and is adaptable to robotics, is the first high-throughput screen for RNase H and is described in further detail in the Experimental section. HIV-1 RT and human RNase H were cloned, and thus comparative analysis of inhibitor action could be conducted simultaneously.
The assay for RNase H activity of HIV reverse transcriptase was the fluorescence-based assay described in detail in the Experimental section and discussed in U.S. Provisional Patent Application Serial No. 60/318,359. Assays were carried out in the absence and in the presence of mappicine analogs (10 μM or 20 μM final concentration). The results are reported as % residual activity, which is the RNase H activity of the enzyme in the presence of the mappicine analog divided by the RNase H activity of the enzyme in the absence of the mappicine analog, multiplied by 100. Alternatively, the results are reported as % inhibition, which is calculated as the ratio of the RNase H activity of the enzyme in the presence of the mappicine analog to the enzyme activity in the absence of the mappicine analog, multiplied by 100, and then subtracting this number from 100.
Assay for Ribonuclease H Activity Based on Fluorescence Resonance Energy Transfer (FRET)
Preparation of the Fluorophore-RNA/Quencher-DNA Hybrid Duplex Substrate.
The RNA/DNA hybrid duplex substrate for use in the assay comprises an RNA oligonucleotide of sequence 5′-GAU CUG AGC CUG GGA GCU-3′, modified at the 3′-end with Aminolink-2 and derivatized with fluorescein isothiocyanate, to provide a modified RNA oligonucleotide of the sequence 5′-GAU CUG AGC CUG GGA GCU-fluorescein-3′, annealed to a complementary DNA oligonucleotide of the sequence 5′-AGC TCC CAG GCT CAG ATC-3′ modified at the 5′-end with Aminolink-2 and derivatized with the FRET acceptor DABCYL succinimidyl ester, to provide a modified DNA oligonucleotide of the sequence 5′-DABCYL-AGC TCC CAG GCT CAG ATC-3′.
To prepare the 3′-fluorescein-RNA/5′-DABCYL-DNA hybrid duplex substrate, a known amount of 3′-fluorescein-RNA was dissolved in 20 mM Tris buffer (pH 8.0, 37° C.) to provide a final concentration of 5 μM. Two equivalents of the 5′-DABCYL-DNA oligonucleotide were added, and the mixture was heated to 90° C. for 5 min and cooled slowly to room temperature to allow duplex formation. The positioning of the fluorescein donor at the 3′-end of the RNA oligonucleotide and the DABCYL acceptor at the 5′-end of the DNA oligonucleotide provides a very close proximity of the donor and acceptor that results in a very intense quenching of the fluorescein emission in the intact RNA/DNA hybrid duplex substrate due to the spectral overlap of the fluorescence emission of fluorescein with the absorption spectrum of DABCYL. In addition, DABCYL is non-fluorescent, and thus cannot contribute any light emission. Both of these factors result in a very low background and provide a high signal-to-noise in the assay measurements. The ratio of the donor fluorescence in the absence and in the presence of its quencher is approximately fifteen-fold.
Microplate Assay Protocol for the Measurement of RNase H Activity Using the RNA/IDNA Hybrid Duplex Substrate.
Reaction assay mixtures contained 5 μl of a stock solution of 2.5 μM RNA/DNA hybrid duplex substrate added to 85 μl of assay buffer (50 mM Tris, pH 8.0, 37° C., containing 60 mM KCl and 2.5 mM MgCl2), prepared in the wells of a 96-well fluorescence microtiter plate, and warmed to 37° C. using the temperature control of the SpectraMax Gemini XS microplate spectrofluorometer (Molecular Devices). Reactions were started by the addition of 5 μl of a solution of recombinant HIV-1 reverse transcriptase (usually providing a final concentration of 2.5 nM of the p51/p66 RT heterodimer in the assay), and mixing using the automatic mixing function of the microplate spectrofluorometer. […]

2-Acetoxy-12-ethyl-7-(1-hydroxypropyl)-8-methyl-1H-indolizino [1,2-b]quinolin-9-one [5 (AG 7M)]
Residual activity (%) Polymerase [1]: 99%
Residual activity (%) RNase H [2]: 63%

CCC(O)c1cc2n(c(=O)c1C)Cc1c-2nc2ccccc2c1-c1ccccc1 (stereo not shown) [5 (3Aα)]
Residual activity (%) Polymerase [1]: 90%
Residual activity (%) RNase H [2]: 97%

CCC(=O)c1cc2n(c(=O)c1C)Cc1c-2nc2ccccc2c1-c1ccccc1 [5 (3Aακ)]
Residual activity (%) Polymerase [1]: 64%
Residual activity (%) RNase H [2]: 87%

Cc1c(C(O)C(C)(C)C)cc2n(c1=O)Cc1c-2nc2ccccc2c1-c1ccccc1 (stereo not shown) [5 (3Aβ)]
Residual activity (%) Polymerase [1]: 54%
Residual activity (%) RNase H [2]: 95%

Cc1c(C(=O)C(C)(C)C)cc2n(c1=O)Cc1c-2nc2ccccc2c1-c1ccccc1 [5 (3Aβκ)]
Residual activity (%) Polymerase [1]: 64%
Residual activity (%) RNase H [2]: 94%

Cc1c(C(O)CCC2CCCCC2)cc2n(c1=O)Cc1c-2nc2ccccc2c1-c1ccccc1 (stereo not shown) [5 (3Aδ)]
Residual activity (%) Polymerase [1]: 32%
Residual activity (%) RNase H [2]: 104%

Cc1c(C(=O)CCC2CCCCC2)cc2n(c1=O)Cc1c-2nc2ccccc2c1-c1ccccc1 [5 (3Aδκ)]
Residual activity (%) Polymerase [1]: 66%
Residual activity (%) RNase H [2]: 73%

Cc1c(C(O)Cc2ccccc2)cc2n(c1=O)Cc1c-2nc2ccccc2c1-c1ccccc1 (stereo not shown) [5 (3Aε)]
Residual activity (%) Polymerase [1]: 34%
Residual activity (%) RNase H [2]: 99%

CCC(O)c1cc2n(c(=O)c1C)Cc1c-2nc2ccc(F)cc2c1-c1ccccc1 (stereo not shown) [5 (3Bα)]
Residual activity (%) Polymerase [1]: 54%
Residual activity (%) RNase H [2]: 83%

CCC(=O)c1cc2n(c(=O)c1C)Cc1c-2nc2ccc(F)cc2c1-c1ccccc1 [5 (3Bακ)]
Residual activity (%) Polymerase [1]: 100%
Residual activity (%) RNase H [2]: 94%

Cc1c(C(O)C(C)(C)C)cc2n(c1=O)Cc1c-2nc2ccc(F)cc2c1-c1ccccc1 (stereo not shown) [5 (3Bβ)]
Residual activity (%) Polymerase [1]: 78%
Residual activity (%) RNase H [2]: 75%

Cc1c(C(=O)C(C)(C)C)cc2n(c1=O)Cc1c-2nc2ccc(F)cc2c1-c1ccccc1 [5 (3Bβκ)]
Residual activity (%) Polymerase [1]: 61%
Residual activity (%) RNase H [2]: 95%

Cc1c(C(O)CCC2CCCCC2)cc2n(c1=O)Cc1c-2nc2ccc(F)cc2c1-c1ccccc1 (stereo not shown) [5 (3Bδ)]
Residual activity (%) Polymerase [1]: 81%
Residual activity (%) RNase H [2]: 99%

Cc1c(C(=O)CCC2CCCCC2)cc2n(c1=O)Cc1c-2nc2ccc(F)cc2c1-c1ccccc1 [5 (3Bδκ)]
Residual activity (%) Polymerase [1]: 59%
Residual activity (%) RNase H [2]: 93%

Cc1c(C(O)Cc2ccccc2)cc2n(c1=O)Cc1c-2nc2ccc(F)cc2c1-c1ccccc1 (stereo not shown) [5 (3Bε)]
Residual activity (%) Polymerase [1]: 28%
Residual activity (%) RNase H [2]: 91%

CCC(O)c1cc2n(c(=O)c1C)Cc1c-2nc2ccc(C)cc2c1-c1ccccc1 (stereo not shown) [5 (3Cα)]
Residual activity (%) Polymerase [1]: 64%
Residual activity (%) RNase H [2]: 96%

CCC(=O)c1cc2n(c(=O)c1C)Cc1c-2nc2ccc(C)cc2c1-c1ccccc1 [5 (3Cακ)]
Residual activity (%) Polymerase [1]: 71%
Residual activity (%) RNase H [2]: 99%

Cc1ccc2nc3c(c(-c4ccccc4)c2c1)Cn1c-3cc(C(=O)C(C)(C)C)c(C)c1=O [5 (3Cβκ)]
Residual activity (%) Polymerase [1]: 63%
Residual activity (%) RNase H [2]: 96%

Cc1ccc2nc3c(c(-c4ccccc4)c2c1)Cn1c-3cc(C(=O)CCC2CCCCC2)c(C)c1=O [5 (3Cδκ)]
Residual activity (%) Polymerase [1]: 65%
Residual activity (%) RNase H [2]: 93%

Cc1ccc2nc3c(c(-c4ccccc4)c2c1)Cn1c-3cc(C(O)Cc2ccccc2)c(C)c1=O (stereo not shown) [5 (3Cε)]
Residual activity (%) Polymerase [1]: 76%
Residual activity (%) RNase H [2]: 101%

CCC(O)c1cc2n(c(=O)c1C)Cc1c-2nc2ccc(OC)cc2c1-c1ccccc1 (stereo not shown) [5 (3Dα)]
Residual activity (%) Polymerase [1]: 69%
Residual activity (%) RNase H [2]: 78%

CCC(=O)c1cc2n(c(=O)c1C)Cc1c-2nc2ccc(OC)cc2c1-c1ccccc1 [5 (3Dακ)]
Residual activity (%) Polymerase [1]: 76%
Residual activity (%) RNase H [2]: 104%

COc1ccc2nc3c(c(-c4ccccc4)c2c1)Cn1c-3cc(C(O)C(C)(C)C)c(C)c1=O (stereo not shown) [5 (3Dβ)]
Residual activity (%) Polymerase [1]: 85%
Residual activity (%) RNase H [2]: 70%

COc1ccc2nc3c(c(-c4ccccc4)c2c1)Cn1c-3cc(C(O)CCC2CCCCC2)c(C)c1=O (stereo not shown) [5 (3Dδ)]
Residual activity (%) Polymerase [1]: 60%
Residual activity (%) RNase H [2]: 67%

COc1ccc2nc3c(c(-c4ccccc4)c2c1)Cn1c-3cc(C(=O)CCC2CCCCC2)c(C)c1=O [5 (3Dδκ)]
Residual activity (%) Polymerase [1]: 81%
Residual activity (%) RNase H [2]: 97%

COc1ccc2nc3c(c(-c4ccccc4)c2c1)Cn1c-3cc(C(O)Cc2ccccc2)c(C)c1=O (stereo not shown) [5 (3Dε)]
Residual activity (%) Polymerase [1]: 61%
Residual activity (%) RNase H [2]: 79%

COc1ccc2nc3c(c(-c4ccccc4)c2c1)Cn1c-3cc(C(=O)Cc2ccccc2)c(C)c1=O [5 (3Dεκ)]
Residual activity (%) Polymerase [1]: 73%
Residual activity (%) RNase H [2]: 88%

CCC(O)c1cc2n(c(=O)c1C)Cc1c-2nc2ccccc2c1[Si](C)(C)C(C)(C)C (stereo not shown) [5 (4Aα)]
Residual activity (%) Polymerase [1]: 67%
Residual activity (%) RNase H [2]: 104%

CCC(=O)c1cc2n(c(=O)c1C)Cc1c-2nc2ccccc2c1[Si](C)(C)C(C)(C)C [5 (4Aακ)]
Residual activity (%) Polymerase [1]: 43%
Residual activity (%) RNase H [2]: 76%

Cc1c(C(O)C(C)(C)C)cc2n(c1=O)Cc1c-2nc2ccccc2c1[Si](C)(C)C(C)(C)C (stereo not shown) [5 (4Aβ)]
Residual activity (%) Polymerase [1]: 71%
Residual activity (%) RNase H [2]: 101%

Cc1c(C(=O)C(C)(C)C)cc2n(c1=O)Cc1c-2nc2ccccc2c1[Si](C)(C)C(C)(C)C [5 (4Aβκ)]
Residual activity (%) Polymerase [1]: 79%
Residual activity (%) RNase H [2]: 70%

Cc1c(C(O)CCC2CCCCC2)cc2n(c1=O)Cc1c-2nc2ccccc2c1[Si](C)(C)C(C)(C)C (stereo not shown) [5 (4Aδ)]
Residual activity (%) Polymerase [1]: 45%
Residual activity (%) RNase H [2]: 95%

Cc1c(C(=O)CCC2CCCCC2)cc2n(c1=O)Cc1c-2nc2ccccc2c1[Si](C)(C)C(C)(C)C [5 (4Aδκ)]
Residual activity (%) Polymerase [1]: 39%
Residual activity (%) RNase H [2]: 102%

CCCCCc1c2c(nc3ccc(C(F)(F)F)cc13)-c1cc(C(O)CCC3CCCCC3)c(C)c(=O)n1C2 (stereo not shown) [Compound 7.7.4]
% inhibition of RNase H at 20 μM [2]: 75%

CCc1ccc2nc3c(c(-c4ccccc4)c2c1)Cn1c-3cc(C(O)CCC2CCCCC2)c(C)c1=O (stereo not shown) [Compound 7.8.5]
% inhibition of RNase H at 20 μM [2]: 65%

Cc1c(C(O)CCC2CCCCC2)cc2n(c1=O)Cc1c-2nc2ccc(Cl)cc2c1-c1ccccc1 (stereo not shown) [Compound 7.8.6]
% inhibition of RNase H at 20 μM [2]: 90%

Cc1ccc2nc3c(c(-c4ccccc4)c2c1)Cn1c-3cc(C(O)CCC2CCCCC2)c(C)c1=O (stereo not shown) [Compound 7.8.9]
% inhibition of RNase H at 20 μM [2]: 61%
